Results taken from ChEMBL document CHEMBL4251651, “Synthesis and biological evaluation of 4-amino-5-cinnamoylthiazoles as chalcone-like anticancer agents” (Eur J Med Chem, 2018).
Values after ≈ are worked out from the molar mass of the structure shown.

Tests used:
MCF7 = assay: Antiproliferative activity against human MCF7 cells after 48 hrs by MTT assay; type: functional, cell-based; details: MCF7, 48 h
HepG2 [1] = assay: Antiproliferative activity against human HepG2 cells after 48 hrs by MTT assay; type: functional, cell-based; details: HepG2, 48 h
SW480 = assay: Antiproliferative activity against human SW480 cells after 48 hrs by MTT assay; type: functional, cell-based; details: SW480, 48 h
HepG2 [2] = assay: Induction of apoptosis in human HepG2 cells assessed as late apoptotic cells at IC50 after 48 hrs by Annexin V-FITC/propidium iodide staining based flow cytometry (reference value: 18.1%); type: functional
HepG2 [3] = assay: Cell cycle arrest in human HepG2 cells assessed as accumulation at G2 phase at IC50 after 48 hrs by propidium iodide staining-based flow cytometry (reference value: 38.82%); type: functional
HepG2 [4] = assay: Induction of apoptosis in human HepG2 cells assessed as necrotic cells at 1.2 times IC50 after 48 hrs by Annexin V-FITC/propidium iodide staining based flow cytometry (reference value: 7.77%); type: functional
HepG2 [5] = assay: Induction of apoptosis in human HepG2 cells assessed as early apoptotic cells at IC50 after 48 hrs by Annexin V-FITC/propidium iodide staining based flow cytometry (reference value: 11.7%); type: functional
HepG2 [6] = assay: Induction of apoptosis in human HepG2 cells assessed as viable cells at IC50 after 48 hrs by Annexin V-FITC/propidium iodide staining based flow cytometry (reference value: 62.4%); type: functional
HepG2 [7] = assay: Induction of apoptosis in human HepG2 cells assessed as necrotic cells at IC50 after 48 hrs by Annexin V-FITC/propidium iodide staining based flow cytometry (reference value: 7.77%); type: functional
HepG2 [8] = assay: Induction of apoptosis in human HepG2 cells assessed as late apoptotic cells at 1.2 times IC50 after 48 hrs by Annexin V-FITC/propidium iodide staining based flow cytometry (reference value: 18.1%); type: functional
HepG2 [9] = assay: Induction of apoptosis in human HepG2 cells assessed as viable cells at 1.2 times IC50 after 48 hrs by Annexin V-FITC/propidium iodide staining based flow cytometry (reference value: 62.4%); type: functional
HepG2 [10] = assay: Induction of apoptosis in human HepG2 cells assessed as early apoptotic cells at 1.2 times IC50 after 48 hrs by Annexin V-FITC/propidium iodide staining based flow cytometry (reference value: 11.7%); type: functional
HepG2 [11] = assay: Cell cycle arrest in human HepG2 cells assessed as accumulation at S phase at 1.2 times IC50 after 48 hrs by propidium iodide staining-based flow cytometry (reference value: 51.72%); type: functional
HepG2 [12] = assay: Cell cycle arrest in human HepG2 cells assessed as accumulation at G1 phase at 1.2 times IC50 after 48 hrs by propidium iodide staining-based flow cytometry (reference value: 29.83%); type: functional
HepG2 [13] = assay: Cell cycle arrest in human HepG2 cells assessed as accumulation at G2 phase at 1.2 times IC50 after 48 hrs by propidium iodide staining-based flow cytometry (reference value: 38.82%); type: functional
HepG2 [14] = assay: Cell cycle arrest in human HepG2 cells assessed as accumulation at S phase at IC50 after 48 hrs by propidium iodide staining-based flow cytometry (reference value: 51.72%); type: functional
HepG2 [15] = assay: Cell cycle arrest in human HepG2 cells assessed as accumulation at G1 phase at IC50 after 48 hrs by propidium iodide staining-based flow cytometry (reference value: 29.83%); type: functional

SMILES	IC50 (MCF7)	IC50 (HepG2 [1])	IC50 (SW480)	further results
COc1ccccc1/C=C/C(=O)c1sc(N2CCCC2)nc1N	> 50 mg/L	35.1 mg/L (≈ 107 µM)	17 mg/L (≈ 51.6 µM)	
Nc1nc(N2CCCCC2)sc1C(=O)/C=C/c1ccc([N+](=O)[O-])cc1	14.6 mg/L (≈ 40.7 µM)	15.4 mg/L (≈ 43 µM)	25.6 mg/L (≈ 71.4 µM)	Activity (HepG2 [2]): 27.7%; Activity (HepG2 [3]): 30.17%; Activity (HepG2 [4]): 24.2%; Activity (HepG2 [5]): 2.1%; Activity (HepG2 [6]): 46%; Activity (HepG2 [7]): 24.2%; Activity (HepG2 [8]): 47.1%; Activity (HepG2 [9]): 26.1%; Activity (HepG2 [10]): 2.53%; Activity (HepG2 [11]): 33.47%; Activity (HepG2 [12]): 54.18%; Activity (HepG2 [13]): 25.23%; Activity (HepG2 [14]): 27.92%; Activity (HepG2 [15]): 47.1%
Nc1nc(N2CCCCC2)sc1C(=O)/C=C/c1ccc(Cl)cc1Cl	25.5 mg/L (≈ 66.7 µM)	22.9 mg/L (≈ 59.9 µM)	36.8 mg/L (≈ 96.3 µM)	
Nc1nc(N2CCCCC2)sc1C(=O)/C=C/c1ccc(Br)cc1	25.6 mg/L (≈ 65.3 µM)	17.4 mg/L (≈ 44.4 µM)	31.6 mg/L (≈ 80.5 µM)	
Nc1nc(N2CCCCC2)sc1C(=O)/C=C/c1ccccc1	22.4 mg/L (≈ 71.5 µM)	16.6 mg/L (≈ 53 µM)	28.1 mg/L (≈ 89.7 µM)	
Nc1nc(N2CCCCC2)sc1C(=O)/C=C/c1ccc(Cl)cc1	19.5 mg/L (≈ 56.1 µM)	12 mg/L (≈ 34.5 µM)	29.4 mg/L (≈ 84.5 µM)	Activity (HepG2 [2]): 34.4%; Activity (HepG2 [3]): 27.88%; Activity (HepG2 [4]): 17.2%; Activity (HepG2 [5]): 2.84%; Activity (HepG2 [6]): 44.3%; Activity (HepG2 [7]): 18.5%; Activity (HepG2 [8]): 34.7%; Activity (HepG2 [9]): 44.8%; Activity (HepG2 [10]): 3.31%; Activity (HepG2 [11]): 18.26%; Activity (HepG2 [12]): 48.58%; Activity (HepG2 [13]): 37.65%; Activity (HepG2 [14]): 28.24%; Activity (HepG2 [15]): 44.47%
Nc1nc(N2CCOCC2)sc1C(=O)/C=C/c1ccc(Cl)cc1	> 50 mg/L	35.8 mg/L (≈ 102 µM)	33.4 mg/L (≈ 95.5 µM)	
Nc1nc(N2CCOCC2)sc1C(=O)/C=C/c1ccc(Br)cc1	> 50 mg/L	> 50 mg/L	32.7 mg/L (≈ 82.9 µM)	
Nc1nc(N2CCOCC2)sc1C(=O)/C=C/c1ccc([N+](=O)[O-])cc1	40 mg/L (≈ 111 µM)	27.6 mg/L (≈ 76.6 µM)	43.3 mg/L (≈ 120 µM)	
COc1cc([C@@H]2c3cc4c(cc3[C@@H](O[C@@H]3O[C@@H]5CO[C@@H](C)O[C@H]5[C@H](O)[C@H]3O)[C@H]3COC(=O)[C@H]23)OCO4)cc(OC)c1O [ETOPOSIDE]				Activity (HepG2 [2]): 24.7%; Activity (HepG2 [5]): 2.59%; Activity (HepG2 [6]): 37.1%; Activity (HepG2 [7]): 35.5%
Nc1nc(N2CCCC2)sc1C(=O)/C=C/c1ccccc1	21.7 mg/L (≈ 72.5 µM)	29.6 mg/L (≈ 98.9 µM)	31.7 mg/L (≈ 106 µM)	
Nc1nc(N2CCCC2)sc1C(=O)/C=C/c1ccc(Cl)cc1	24 mg/L (≈ 71.9 µM)	27 mg/L (≈ 80.9 µM)	19.9 mg/L (≈ 59.6 µM)	
Nc1nc(N2CCCC2)sc1C(=O)/C=C/c1ccc([N+](=O)[O-])cc1	26.3 mg/L (≈ 76.4 µM)	23.5 mg/L (≈ 68.2 µM)	22.4 mg/L (≈ 65 µM)	
Nc1nc(N2CCCC2)sc1C(=O)/C=C/c1ccc(Br)cc1	41.3 mg/L (≈ 109 µM)	30 mg/L (≈ 79.3 µM)	15.8 mg/L (≈ 41.8 µM)	
Nc1nc(N2CCOCC2)sc1C(=O)/C=C/c1ccccc1	34.7 mg/L (≈ 110 µM)	21.4 mg/L (≈ 67.9 µM)	30.5 mg/L (≈ 96.7 µM)	
Nc1nc(N2CCOCC2)sc1C(=O)/C=C/c1ccc(Cl)cc1Cl	18.6 mg/L (≈ 48.4 µM)	12.8 mg/L (≈ 33.3 µM)	33.2 mg/L (≈ 86.4 µM)	
Nc1nc(N2CCCC2)sc1C(=O)/C=C/c1ccc(Cl)cc1Cl	12.6 mg/L (≈ 34.2 µM)	10.6 mg/L (≈ 28.8 µM)	18.4 mg/L (≈ 50 µM)	Activity (HepG2 [2]): 13.2%; Activity (HepG2 [3]): 64.84%; Activity (HepG2 [4]): 24.4%; Activity (HepG2 [5]): 1.43%; Activity (HepG2 [6]): 44.6%; Activity (HepG2 [7]): 40.8%; Activity (HepG2 [8]): 44.3%; Activity (HepG2 [9]): 24.2%; Activity (HepG2 [10]): 7.12%; Activity (HepG2 [11]): 16.34%; Activity (HepG2 [12]): 27.04%; Activity (HepG2 [13]): 68.37%; Activity (HepG2 [14]): 14.64%; Activity (HepG2 [15]): 22.09%
